In patent publication US10723723B2, “Substituted bicycle heterocyclic derivatives useful as ROMK channel inhibitors” (BRISTOL-MYERS SQUIBB COMPANY, priority 2016, dated 2020) one finds inhibition and IC50 data, which are given here for 23 compounds.

Type in all cases: cell-based
One data set deals with hERG channels (Homo sapiens (Human), UniProt Q12809). Description: hERG Manual Patch Clamp Assay (HEK 293 cells stably expressing hERG channels). The settings on record: human, HEK 293 cells stably expressing hERG channels, pH 7.4.
Another data set has as its target hROMK (human Kir1.1) (Homo sapiens (Human), UniProt P48048). Description: Thallium Flux Assay (FluxOR, CHO T-Rex hROMK stable cell line). The settings on record: CHO T-Rex hROMK cells, 10-point concentration response curve; read-out: Human ROMK TH Flux IC50.
In the next data set the target is hROMK (Homo sapiens (Human), UniProt P48048). Description: ROMK Manual Patch Clamp Assay. The settings on record: whole-cell manual patch clamp, hROMK current; read-out: ROMK EP IC50.
Sequence of hROMK (P48048 whole entry): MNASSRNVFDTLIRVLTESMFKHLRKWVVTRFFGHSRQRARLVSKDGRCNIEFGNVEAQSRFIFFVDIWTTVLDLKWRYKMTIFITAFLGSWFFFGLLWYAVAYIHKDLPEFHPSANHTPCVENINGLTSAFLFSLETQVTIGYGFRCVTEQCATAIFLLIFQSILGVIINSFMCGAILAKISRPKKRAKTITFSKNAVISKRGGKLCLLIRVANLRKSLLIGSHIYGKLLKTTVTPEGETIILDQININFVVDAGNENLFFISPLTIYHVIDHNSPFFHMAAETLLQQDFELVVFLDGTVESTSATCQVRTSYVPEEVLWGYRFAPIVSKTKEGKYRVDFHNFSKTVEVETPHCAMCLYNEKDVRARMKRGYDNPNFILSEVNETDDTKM

Sequence of hERG channels (Q12809 whole entry): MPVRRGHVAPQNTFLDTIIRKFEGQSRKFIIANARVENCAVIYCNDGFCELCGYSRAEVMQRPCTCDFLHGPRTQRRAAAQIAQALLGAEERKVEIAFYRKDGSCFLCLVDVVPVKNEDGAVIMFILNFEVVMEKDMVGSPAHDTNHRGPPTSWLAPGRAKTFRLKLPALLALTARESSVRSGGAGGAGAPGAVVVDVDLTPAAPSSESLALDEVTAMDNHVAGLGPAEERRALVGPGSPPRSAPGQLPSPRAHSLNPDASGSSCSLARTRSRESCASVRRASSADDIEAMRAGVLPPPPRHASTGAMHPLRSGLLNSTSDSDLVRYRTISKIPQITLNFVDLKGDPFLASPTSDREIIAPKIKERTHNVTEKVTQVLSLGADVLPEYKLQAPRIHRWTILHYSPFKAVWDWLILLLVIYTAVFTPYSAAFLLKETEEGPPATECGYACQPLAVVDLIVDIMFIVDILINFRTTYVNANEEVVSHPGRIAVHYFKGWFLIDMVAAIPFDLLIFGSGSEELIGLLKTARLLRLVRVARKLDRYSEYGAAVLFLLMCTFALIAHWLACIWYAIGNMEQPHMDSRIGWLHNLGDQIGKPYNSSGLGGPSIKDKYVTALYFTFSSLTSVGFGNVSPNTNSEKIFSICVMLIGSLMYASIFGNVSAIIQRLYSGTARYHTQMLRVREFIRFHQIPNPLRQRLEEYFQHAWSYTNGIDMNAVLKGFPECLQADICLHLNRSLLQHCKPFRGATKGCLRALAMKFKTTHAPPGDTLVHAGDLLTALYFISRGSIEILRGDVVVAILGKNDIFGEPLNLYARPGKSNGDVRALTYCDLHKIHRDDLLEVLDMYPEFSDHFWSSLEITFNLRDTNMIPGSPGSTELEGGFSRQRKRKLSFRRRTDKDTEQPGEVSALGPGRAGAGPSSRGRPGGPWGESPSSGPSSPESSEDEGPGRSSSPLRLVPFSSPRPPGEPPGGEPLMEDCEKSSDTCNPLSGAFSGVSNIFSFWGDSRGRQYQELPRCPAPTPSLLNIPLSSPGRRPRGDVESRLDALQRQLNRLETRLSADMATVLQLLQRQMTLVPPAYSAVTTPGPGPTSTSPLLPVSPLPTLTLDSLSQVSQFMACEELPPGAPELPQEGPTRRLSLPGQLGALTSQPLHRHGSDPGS
Sequence of hROMK (human Kir1.1) (P48048 whole entry): as the sequence (P48048 whole entry) above

Regarding `Cc1nn(-c2ncc(CNC[C@H](O)c3ccc4c(c3C)COC4=O)cn2)cc1C#N` [Example 105, (R)-1-(5-(((2-hydroxy-2-(4-methyl-1-oxo-1,3-dihydroisobenzofuran-5-yl)ethyl)amino)methyl)pyrimidin-2-yl)-3-methyl-1H-pyrazole-4-carbonitrile], on hERG channels, the inhibition at 1 µM worked out at 3.4%. Moreover, the concentration for half-maximal inhibition (IC50) at hROMK (human Kir1.1) came to 0.011 µM; on hROMK it was 0.0078 µM.
On hERG channels, `Cc1c([C@@H](O)CNCc2cnc(-n3c(C)nnc3C)nc2)ccc2c1COC2=O` [Example 47, (R)-5-(2-(((2-(3,5-dimethyl-4H-1,2,4-triazol-4-yl)pyrimidin-5-yl)methyl)amino)-1-hydroxyethyl)-4-methylisobenzofuran-1(3H)-one] showed an inhibition at 1 µM of 9.7%. Besides, the IC50 was found to be 0.1 µM at hROMK (human Kir1.1) and 0.42 µM on hROMK.
For `Cc1cn(-c2ccc(CNC[C@H](O)c3ccc4c(c3C)COC4=O)cn2)cn1` [Example 108, (R)-5-(1-hydroxy-2-(((6-(4-methyl-1H-imidazol-1-yl)pyridin-3-yl)methyl)amino)ethyl)-4-methylisobenzofuran-1(3H)-one] the same measures were 7.3%, 0.035 µM and 0.019 µM.
Taken in the same sequence, the figures for `Cc1c(C(O)CN(C)Cc2ccc(-c3ccc(C#N)c(F)c3)cc2)ccc2c1COC2=O` (single isomer, unassigned) [Example 27-I, 3-fluoro-4′-(((2-hydroxy-2-(4-methyl-1-oxo-1,3-dihydroisobenzofuran-5-yl)ethyl)(methyl)amino)methyl)-[1,1′-biphenyl]-4-carbonitrile] were 95%, 0.04 µM and 0.0068 µM.
Taken in the same sequence, the figures for `Cc1nc(-n2cc(CNC[C@H](O)c3ccc4c(c3C)COC4=O)cn2)nc(C)c1C#N` [Example 87, (R)-2-(4-(((2-hydroxy-2-(4-methyl-1-oxo-1,3-dihydroisobenzofuran-5-yl)ethyl)amino)methyl)-1H-pyrazol-1-yl)-4,6-dimethylpyrimidine-5-carbonitrile] were 7.5%, 0.04 µM and 0.071 µM.
Consider `COc1nc(-n2cc(CNC[C@H](O)c3ccc4c(c3C)COC4=O)nn2)cc(C)c1C#N` [Example 67, (R)-6-(4-(((2-hydroxy-2-(4-methyl-1-oxo-1,3-dihydroisobenzofuran-5-yl)ethyl)amino)methyl)-1H-1,2,3-triazol-1-yl)-2-methoxy-4-methylnicotinonitrile], for which the inhibition at 1 µM on hERG channels is 11%. Also, the values for the IC50 on hROMK (human Kir1.1) and on hROMK were 0.02 µM and 0.0093 µM, respectively.
At hERG channels, `Cc1c([C@@H](O)CNC(=O)c2cnc(-c3ccc4oc(=O)n(C)c4c3)s2)ccc2c1COC2=O` [Example 136, (R)-N-(2-hydroxy-2-(4-methyl-1-oxo-1,3-dihydroisobenzofuran-5-yl)ethyl)-2-(3-methyl-oxo-2,3-dihydrobenzo[d]oxazol-5-yl)thiazole-5-carboxamide] returned an inhibition at 1 µM of 15%. The IC50 on hROMK (human Kir1.1) came out at 0.07 µM; at hROMK, 0.086 µM.
Taken in the same sequence, the figures for `Cc1nn(-c2ccc(CNC[C@H](O)c3ccc4c(c3C)COC4=O)cn2)cc1C#N` [Example 178, (R)-1-(5-(((2-hydroxy-2-(4-methyl-1-oxo-1,3-dihydroisobenzofuran-5-yl)ethyl)amino)methyl)pyridin-2-yl)-3-methyl-1H-pyrazole-4-carbonitrile] were 36%, 0.0036 µM and 0.0021 µM.
Taken in the same sequence, the figures for `Cc1c(C(O)CNCc2ccc3c(ccn3-c3ccc4c(c3)COC4=O)c2)ccc2c1COC2=O` (stereo not drawn) [Example 8-I, 5-(1-hydroxy-2-(((1-(1-oxo-1,3-dihydroisobenzofuran-5-yl)-1H-indol-5-yl)methyl)amino)ethyl)-4-methylisobenzofuran-1(3H)-one] were 83%, 0.29 µM and 0.042 µM.
Taken in the same sequence, the figures for `COc1cc(-n2cc(CNC(C)C(O)c3ccc4c(c3C)COC4=O)nn2)ncc1C#N` (single isomer, unassigned) [Example 91-I, 6-(4-(((1-hydroxy-1-(4-methyl-1-oxo-1,3-dihydroisobenzofuran-5-yl)propan-2-yl)amino)methyl)-1H-1,2,3-triazol-1-yl)-4-methoxynicotinonitrile] were 19%, 0.021 µM and 0.011 µM.
`Cc1c([C@@H](O)CNCc2cn(-c3ccc4oc(=O)n(C)c4c3)nn2)ccc2c1COC2=O` [Example 139, (R)-5-(4-(((2-hydroxy-2-(4-methyl-1-oxo-1,3-dihydroisobenzofuran-5-yl)ethyl)amino)methyl)-1H-1,2,3-triazol-1-yl)-3-methylbenzo[d]oxazol-2(3H)-one]: at hERG channels, 1 µM produced 5.9% inhibition. In addition, the concentration for half-maximal inhibition (IC50) on hROMK (human Kir1.1) was found to be 0.055 µM; at hROMK it was 0.024 µM.
Taken in the same sequence, the figures for `Cc1cc(-n2cc(CNC[C@H](NS(C)(=O)=O)c3ccc4c(c3C)COC4=O)cn2)ncc1C#N` [Example 61, (R)-N-(2-(((1-(5-cyano-4-methylpyridin-2-yl)-1H-pyrazol-4-yl)methyl)amino)-1-(4-methyl-1-oxo-1,3-dihydroisobenzofuran-5-yl)ethyl)methanesulfonamide] were 8.4%, 0.027 µM and 0.027 µM.
Taken in the same sequence, the figures for `Cc1cc(-n2cc(CNC[C@H](O)c3ccc4c(c3C)COC4=O)nn2)nc(C)c1C#N` [Example 69, (R)-6-(4-(((2-hydroxy-2-(4-methyl-1-oxo-1,3-dihydroisobenzofuran-5-yl)ethyl)amino)methyl)-1H-1,2,3-triazol-1-yl)-2,4-dimethylnicotinonitrile] were 15%, 0.014 µM and 0.0061 µM.
Taken in the same sequence, the figures for `Cc1c([C@@H](O)CNCc2cnc(-n3cc(C#N)c(C(F)F)n3)nc2)ccc2c1COC2=O` [Example 115, (R)-3-(difluoromethyl)-1-(5-(((2-hydroxy-2-(4-methyl-1-oxo-1,3-dihydroisobenzofuran-5-yl)ethyl)amino)methyl)pyrimidin-2-yl)-1H-pyrazole-4-carbonitrile] were 12%, 0.02 µM and 0.02 µM.
With `COc1cc(-n2cnc(CNC[C@H](O)c3ccc4c(c3C)COC4=O)c2)ncc1C#N` [Example 51, (R)-6-(4-(((2-hydroxy-2-(4-methyl-1-oxo-1,3-dihydroisobenzofuran-5-yl)ethyl)amino)methyl)-1H-imidazol-1-yl)-4-methoxynicotinonitrile], at hERG channels, the inhibition at 1 µM turned out to be 3.4%. Further, the 50% inhibitory concentration (IC50) at hROMK (human Kir1.1) worked out at 0.073 µM; at hROMK it was 0.038 µM.
Taken in the same sequence, the figures for `COc1cc(-c2ccc(CNC[C@H](O)c3ccc4c(c3C)COC4=O)cn2)ncc1C#N` [Example 130, (R)-5′-(((2-hydroxy-2-(4-methyl-1-oxo-1,3-dihydroisobenzofuran-5-yl)ethyl)amino)methyl)-4-methoxy-[2,2′-bipyridine]-5-carbonitrile] were 32%, 0.0083 µM and 0.0011 µM.
Consider `Cc1c(C(O)CN(C)Cc2ccc(-c3ccc4oc(=O)n(C)c4c3)nc2)ccc2c1COC2=O` (stereo not drawn) [Example 1-I, 5-(5-(((2-hydroxy-2-(4-methyl-1-oxo-1,3-dihydroisobenzofuran-5-yl)ethyl)(methyl)amino)methyl)pyridin-2-yl)-3-methylbenzo[d]oxazol-2(3H)-one], for which, on hERG channels, the inhibition at 1 µM was determined as 8.7%. The results for the 50% inhibitory concentration (IC50) at hROMK (human Kir1.1) and at hROMK were 0.17 µM and 0.019 µM, respectively.
Consider `Cc1cn(-c2ncc(CNC[C@H](O)c3ccc4c(c3C)COC4=O)cn2)cn1` [Example 106, (R)-5-(1-hydroxy-2-(((2-(4-methyl-1H-imidazol-1-yl)pyrimidin-5-yl)methyl)amino)ethyl)-4-methylisobenzofuran-1(3H)one], for which the inhibition at 1 µM at hERG channels worked out at 2.4%. Further, the IC50 worked out at 0.026 µM at hROMK (human Kir1.1) and 0.0092 µM on hROMK.
Taken in the same sequence, the figures for `Cc1c([C@@H](O)CNCc2ccc(-n3cc(C#N)cn3)nc2)ccc2c1COC2=O` [Example 177] were 98%, 0.00057 µM and 0.00015 µM.
In the case of `COc1cc(-n2cc(CNC[C@H](O)c3ccc4c(c3C)COC4=O)nn2)ncc1C#N` [Example 138, (R)-6-(4-(((2-hydroxy-2-(4-methyl-1-oxo-1,3-dihydroisobenzofuran-5-yl)ethyl)amino)methyl)-1H-1,2,3-triazol-1-yl)-4-methoxynicotinonitrile], testing at 1 µM on hERG channels gave an inhibition of 10%. The results for the IC50 at hROMK (human Kir1.1) and at hROMK were 0.043 µM and 0.018 µM, respectively.
For `Cc1c(C(O)CNCc2ccc(-c3ccc4oc(=O)n(C)c4c3)nc2)ccc2c1COC2=O` (single isomer, unassigned) [Example 23-I, 5-(5-(((2-hydroxy-2-(4-methyl-1-oxo-1,3-dihydroisobenzofuran-5-yl)ethyl)amino)methyl)pyridin-2-yl)-3-methylbenzo[d]oxazol-2(3H)-one], the inhibition at 1 µM against hERG channels worked out at 13%. Moreover, the 50% inhibitory concentration (IC50) at hROMK (human Kir1.1) was 0.16 µM; at hROMK it was 0.015 µM.
For `Cc1cc(-c2cc(CNC[C@H](O)c3ccc4c(c3C)COC4=O)on2)ncc1C#N` [Example 140, (R)-6-(5-(((2-hydroxy-2-(4-methyl-1-oxo-1,3-dihydroisobenzofuran-5-yl)ethyl)amino)methyl)isoxazol-3-yl)-4-methylnicotinonitrile] the same measures were 8.6%, 0.056 µM and 0.016 µM.
Taken in the same sequence, the figures for `Cc1nc(-n2cc(CNC[C@H](O)c3ccc4c(c3C)COC4=O)cn2)ncc1C#N` (single isomer, unassigned) [Example 50] were 8.5%, 0.045 µM and 0.049 µM.
